According to PMC9433906, “Evaluation of the biotechnological potential of peptide Cupiennin 1a and analogs” (Frontiers in Microbiology, 2022):
≈ marks a conversion by molar mass, not a printed value. Where a SMILES comes first, the peptide text is derived from it.

How the values were obtained:
[1] = system: C. parapsilosis (ATCC22019); test: Broth microdilution MIC (CLSI M27-A3 with modifications); type: cell-based, Candida parapsilosis; settings: 2.5 × 10^3 CFU.ml^−1, Sabouraud medium, 24 h at 30°C, absorbance 595 nm
Method: The broth microdilution method was performed according to the Clinical and Laboratory Standards Institute Guideline M27-A3 with modifications to determine the Minimum Inhibitory Concentration (MIC; [Clinical Laboratory Standards Institute, 2008]).
Initially, the fungus C. parapsilosis (ATCC22019) was grown in a Petri dish containing Sabouraud Dextrose Agar medium (Dextrose 40 g/L; Peptic digestion of animal tissue 5.0 g.L^−1; and Agar 15 g.L^−1) for 48 h. Subsequently, a pre-inoculum was performed from a yeast colony that was placed in 10 ml of liquid Sabouraud medium and incubated for 16 h at 28°C, with a constant rotation of 200 rpm. After the incubation period, 2.5 × 10^3 CFU.ml^−1 of fungus per well was incubated with different peptide micromolar concentrations (Table 1) to assess the MIC for each peptide.
Fungal cells incubated with Sabouraud medium were used as negative control, while positive control was represented by fungal cells incubated in Sabouraud medium and amphotericin B (10 μM). Subsequently, plates were incubated for 24 h at 30°C. After this period, the absorbance was read (595 nm) in a BioTek spectrophotometer (PowerWaveTM HT Microplate Reader), and data of antifungal activity with percentage of inhibition of peptides were plotted in GraphPad Prism 8 Software.

[2] = system: RAW 264.7 cells; test: MTT cytotoxicity test against RAW 264.7; type: cell-based, mice; settings: 24 h; for toxicity against RAW264.7 cells (in words): tested concentrations of Table 1 (128–16 μg.ml^−1)
Method: The cell line RAW 264.7 was obtained from the Rio de Janeiro Cell Bank (CR108). These cells are macrophages derived from induced tumors in male BALB/c mice infected with Abelson’s murine leukemia virus ([Raschke et al., 1978]). RAW264.7 cells were grown in DMEM medium (Dulbecco’s Modified Eagle’s medium, composed of CaCl2 (anhydrous) 200 mg.ml^−1, Fe(NO3).9H2O 0.1 mg.ml^−1, KCL 400 mg.ml^−1, MgSO4 (anhydrous) 97.67 mg.ml^−1, NaCL 6.400 mg.ml^−1, NaH2PO4.H2O 125 mg.ml^−1) supplemented with 10% (v/v) of bovine fetal serum, 0.5% (v/v) of DMEM amino acid solution, 0.05% (w/v) gentamicin, 0.5% (w/v) of L-glutamine, and 0.5% (w/v) of penicillin/streptomycin (1,000 U.ml^−1) in an incubator containing 5% CO2, at 37°C, and 95% humidity ([Raschke et al., 1978]; [Nguyen et al., 2017]).
RAW 264.7 cells were seeded in 96-well plates, at a concentration of 10^4 cells/well, and incubated for 24 h. Each peptide was subsequently added at different micromolar concentrations (Table 1). Positive control was performed by cells in culture medium and negative control, as cell culture in lysis solution (10 mM Tris, 1 mM EDTA, and 0.1% Triton X-100, pH 7.4).
(§1) Cell viability analyses were performed in technical and biological replicates, and readings were obtained after 24 h of contact with peptides. At the end of the incubation period, MTT (Sigma-Aldrich, United States) was used to assess the ability of living cells to reduce salt 3-[4,5-dimethylthiazole-2-yl]-2,5-diphenyltetrazolium bromide for formazan production. Plates were read at 570 ηm ([Mosmann, 1983]) and results were expressed in the percentage of living cells. The results were analyzed using GraphPad Prism 8 software where a One-Way ANOVA statistical test was followed by Bonferroni’s multiple comparisons test.

[3] = system: Human fibroblast (Hfib) cells; test: MTT cytotoxicity test against human fibroblasts (Hfib); type: cell-based; settings: 24 h; for cytotoxicity against Hfib cells at the other concentrations (in words): concentrations other than the highest
Method: Human fibroblast (Hfib) cell cultures were cultivated in Dulbecco’s Modified Eagle Medium (DMEM; Sigma-Aldrich, United States) supplemented with 10% fetal bovine serum (Sigma-Aldrich). Hfib were cultured in a humidified incubator containing 5% CO2 at 37°C and 95% humidity.
Hfib cell line was seeded onto 96-well plates (1 × 10^3 cells/well, 100 μl) before treatment and allowed to adhere and grow over the 24 h period. Each peptide was subsequently added at different micromolar concentrations. The results were evaluated using GraphPad Prism 8 software, where a One-Way ANOVA statistical test followed by Bonferroni’s multiple comparisons test was performed.
as §1

[4] = system: Spodoptera frugiperda (SF21) cells; test: In vitro test against insect cells (MTT); type: cell-based; settings: 24 h
Method: To evaluate the ability of the peptides to cause lysis and morphological changes in insect cells ([Dutra, 2019]; Patent: BR 102022 006138 6) as a first screening of the insecticidal activity of the peptides, in this work, the Spodoptera IPLB-SF-21AE _LVI-Cenargen cell line ([Vaughn et al., 1977]) was used and different concentrations of the peptides were added to the culture medium.
Cells were maintained at 27°C in TNMFH medium (Grace’s insect medium supplemented with lactalbumin hydrolyzate and yeastolate), supplemented with 10% (v/v) fetal bovine serum (Sigma-Aldrich; [Castro et al., 2006]).
Cell cultivation was carried out in 10 ml culture bottles, model K11-1050 25cm^2, with 5 ml of culture medium per bottle. For the assays, the SF21 cells were grown in TNMFH medium, added 10% (v/v) of bovine fetal serum, and distributed in plates of 96 wells at the concentration of 2×10^4 cells per well, after counting was performed in the Neubauer chamber. Cell suspension was distributed in a volume of 100 μl per well. Peptides were diluted in TNMFH medium and 100 μl of medium with peptide was added, obtaining concentrations of 10, 5, and 1 μM, reaching the volume of 200 μl at the final concentrations of reaction per well. Cells were placed in incubation at 27°C, for 24 h.
After 24 h, the cells were analyzed for their modifications, morphological alterations, turbidity of the medium, formation of clumps, and/or lysis in the presence of peptides, by observation under optical microscopy (Nikon Eclipse TS100) with 20× and 40× magnification. Characteristics that could represent cell death or cell dysfunction caused by the peptides were observed compared to control cells. Cells were evaluated by cell viability using the MTT test 3-[4,5-dimethylthiazole-2-yl]-2,5-diphenyltetrazolium bromide 0.5 mg.ml^−1 (Sigma-Aldrich). To perform the test, the cell culture medium was discarded, and we added 100 μl of new medium. Ten μl of MTT was added to each well and incubated for 4 h, with the plates protected from light. After 4 h, we added 100 μl of DMSO to each well to dissolve the formazan crystals, and the reading in the microplate reader ([Riss et al., 2016]) was then performed. The results were analyzed using GraphPad Prism 8 software, where a One-Way ANOVA statistical test was followed by Bonferroni’s multiple comparisons test.

[5] = lowest concentration tested (1 μM)

Row | SMILES | Minimum inhibitory concentration (MIC) [1] | cell viability in RAW cells at the MIC value found for bacteria ([2]; 17.07 and 8.53 μM) | toxicity against RAW264.7 cells (in words) [2] | Hfib cells killed at the highest concentration ([3]; 68.3 (highest concentration)) | cytotoxicity against Hfib cells at the other concentrations (in words) [3] | cell viability (SF21) [4, 5] | cell viability in RAW264.7 cells from the MIC concentration found for MRSA3730592, S. aureus ATCC25923, K. pneumoniae ATCC13883 ([2]; at the MIC of R8b for these strains (17.60 μM in Table 3)) | Hfib cells killed at the highest concentration ([3]; 70.43 (highest concentration)) | toxicity to RAW264.7 cells at the MIC concentration (in words) ([2]; R1b: MIC found for KPC1410503, R3b: MIC at high concentrations against all tested microorganisms) | cytotoxic effect on Hfib cells (in words) ([3]; all concentrations tested) | viable cells (SF21) ([4]; 10 μM) | cell viability (SF21) ([4]; 5 and 1 μM) | cell viability (RAW264.7) in the MIC found for the two strains of S. aureus ([2]; at the MIC of R6b for these strains (17.7 μM in Table 3)) | activity on Hfib cells, reducing the cell viability (in words) ([3]; 35.4 μM) | Hfib cells eradicated ([3]; 70.8 μM)
1 | CC(C)C[C@H](NC(=O)[C@H](CCCNC(=N)N)NC(=O)[C@H](CCCCN)NC(=O)[C@H](Cc1ccccc1)NC(=O)[C@H](CC(C)C)NC(=O)[C@H](CCCCN)NC(=O)CNC(=O)[C@H](Cc1ccccc1)NC(=O)CN)C(=O)N[C@@H](C)C(=O)N[C@@H](CCCCN)C(=O)N[C@@H](C)C(=O)N[C@H](C(=O)N[C@@H](C)C(=O)N[C@@H](CCCCN)C(=O)N[C@@H](C)C(=O)N[C@H](C(=O)N[C@@H](C)C(N)=O)C(C)C)C(C)C [Peptide R10b] (H-GFGKLFKRLAKAVAKAVA-NH2) | 34.15 µM (≈ 64 µg/mL) | more than 50% | high toxicity | 100% | not harmful | below 50% | – | – | – | – | – | – | – | – | –
2 | CC(C)C[C@H](NC(=O)[C@H](C)NC(=O)CNC(=O)[C@H](Cc1ccccc1)NC(=O)CN)C(=O)N[C@@H](Cc1ccccc1)C(=O)N[C@@H](CCCCN)C(=O)N[C@@H](CCCNC(=N)N)C(=O)N[C@@H](CC(C)C)C(=O)N[C@@H](C)C(=O)N[C@@H](CCCCN)C(=O)N[C@@H](C)C(=O)N[C@H](C(=O)N[C@@H](C)C(=O)N[C@@H](CCCCN)C(=O)N[C@@H](C)C(=O)N[C@H](C(=O)N[C@@H](C)C(N)=O)C(C)C)C(C)C [Peptide R8b] (H-GFGALFKRLAKAVAKAVA-NH2) | 35.21 µM (≈ 64 µg/mL) | – | – | – | not harmful | below 50% | 59% | 100% | – | – | – | – | – | – | –
3 | CC(C)C[C@H](NC(=O)[C@H](C)NC(=O)CNC(=O)[C@H](Cc1ccccc1)NC(=O)CN)C(=O)N[C@@H](Cc1ccccc1)C(=O)N[C@@H](CCCCN)C(=O)N[C@@H](CCCNC(=N)N)C(=O)N[C@@H](CC(C)C)C(=O)N[C@@H](C)C(=O)N[C@@H](CCCCN)C(=O)N[C@@H](CCCCN)C(=O)N[C@H](C(=O)N[C@@H](C)C(=O)N[C@@H](CCCCN)C(=O)N[C@H](C(=O)N[C@H](C(=O)N[C@@H](C)C(N)=O)C(C)C)[C@@H](C)O)C(C)C [Peptide R3b] (H-GFGALFKRLAKKVAKTVA-NH2) | 33.60 µM (≈ 64 µg/mL) | – | high toxicity | – | – | – | – | – | toxic | did not show any cytotoxic effect | 14% | greater than 50% | – | – | –
4 | CC(C)C[C@H](NC(=O)[C@H](C)NC(=O)CNC(=O)[C@H](Cc1ccccc1)NC(=O)CN)C(=O)N[C@@H](Cc1ccccc1)C(=O)N[C@@H](CCCCN)C(=O)N[C@@H](Cc1ccccc1)C(=O)N[C@@H](CC(C)C)C(=O)N[C@@H](C)C(=O)N[C@@H](CCCCN)C(=O)N[C@@H](C)C(=O)N[C@H](C(=O)N[C@@H](C)C(=O)N[C@@H](CCCCN)C(=O)N[C@@H](C)C(=O)N[C@H](C(=O)N[C@@H](C)C(N)=O)C(C)C)C(C)C [Peptide R6b] (H-GFGALFKFLAKAVAKAVA-NH2) | 70.8 µM (≈ 128 µg/mL) | – | high toxicity | – | – | below 50% | – | – | – | – | – | – | 62% | slight activity | 100%
